According to ChEMBL document CHEMBL2073915, “Broad-spectrum modulation of ATP-binding cassette transport proteins by the taxane derivatives ortataxel (IDN-5109, BAY 59-8862) and tRA96023” (Cancer Chemother Pharmacol, 2004):

Experiments:
Type in all cases: functional, cell-based
Conditions in all cases: mcf7r
[1] = target: T1, ATP-dependent translocase ABCB1 (Homo sapiens, UniProt P08183); test: TP_TRANSPORTER: efflux of 3uM mitoxantrone in the presence of PSC-833 (Valspodar) at a concentration of 2.5uM in MCF7/R cells
T1 sequence (P08183 whole entry): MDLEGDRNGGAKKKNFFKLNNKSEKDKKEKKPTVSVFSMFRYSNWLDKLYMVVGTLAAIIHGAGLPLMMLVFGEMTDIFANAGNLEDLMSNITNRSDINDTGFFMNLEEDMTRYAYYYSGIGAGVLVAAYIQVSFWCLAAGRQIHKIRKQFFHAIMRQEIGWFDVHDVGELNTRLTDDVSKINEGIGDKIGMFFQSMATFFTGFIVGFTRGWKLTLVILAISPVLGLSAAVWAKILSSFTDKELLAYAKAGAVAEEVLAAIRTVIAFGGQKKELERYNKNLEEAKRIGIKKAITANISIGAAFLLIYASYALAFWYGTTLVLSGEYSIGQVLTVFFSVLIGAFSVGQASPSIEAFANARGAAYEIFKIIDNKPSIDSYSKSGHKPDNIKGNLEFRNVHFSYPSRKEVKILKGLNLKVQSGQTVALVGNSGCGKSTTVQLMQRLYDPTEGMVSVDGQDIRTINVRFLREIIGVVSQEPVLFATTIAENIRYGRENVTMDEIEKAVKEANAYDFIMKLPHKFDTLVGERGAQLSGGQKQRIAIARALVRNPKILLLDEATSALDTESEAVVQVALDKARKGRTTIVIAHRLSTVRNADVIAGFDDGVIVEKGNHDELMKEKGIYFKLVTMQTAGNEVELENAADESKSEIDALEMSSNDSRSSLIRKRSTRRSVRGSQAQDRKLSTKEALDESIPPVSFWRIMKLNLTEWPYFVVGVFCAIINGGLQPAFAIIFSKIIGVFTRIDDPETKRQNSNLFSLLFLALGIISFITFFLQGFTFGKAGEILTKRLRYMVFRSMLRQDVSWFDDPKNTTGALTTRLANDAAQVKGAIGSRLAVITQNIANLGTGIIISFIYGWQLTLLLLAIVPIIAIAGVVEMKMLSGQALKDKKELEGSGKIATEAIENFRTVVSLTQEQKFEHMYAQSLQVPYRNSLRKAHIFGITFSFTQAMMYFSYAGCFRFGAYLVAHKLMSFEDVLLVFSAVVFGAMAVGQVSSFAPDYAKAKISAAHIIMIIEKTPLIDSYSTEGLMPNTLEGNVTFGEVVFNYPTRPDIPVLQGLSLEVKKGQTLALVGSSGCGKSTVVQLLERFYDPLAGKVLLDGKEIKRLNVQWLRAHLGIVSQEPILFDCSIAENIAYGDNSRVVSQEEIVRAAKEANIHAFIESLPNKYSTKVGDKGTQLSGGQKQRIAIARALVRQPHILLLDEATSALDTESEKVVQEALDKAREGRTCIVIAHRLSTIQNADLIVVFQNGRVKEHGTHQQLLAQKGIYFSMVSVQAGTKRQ

[2] = target: T1, ATP-dependent translocase ABCB1; test: TP_TRANSPORTER: efflux of 3uM mitoxantrone in the presence of Probenecid at 1mM in MCF7/R cells
[3] = target: T1, ATP-dependent translocase ABCB1; test: TP_TRANSPORTER: efflux of 3uM mitoxantrone by Fumitremorgin C at 10uM in MCF7/R cells
[4] = target: T1, ATP-dependent translocase ABCB1; test: TP_TRANSPORTER: efflux of 3uM mitoxantrone in the presence of tRA96023 at a concentration of 10uM in MCF7/R cells
[5] = target: T1, ATP-dependent translocase ABCB1; test: TP_TRANSPORTER: efflux of mitoxantrone (Mitoxantrone: 3uM) in the presence of Ortataxel at a concentration of 10uM in MCF7/R cells

**Q.** For `C/C=C/C[C@@H](C)C(=O)[C@H]1C(=O)N[C@@H](C(C)C)C(=O)N(C)CC(=O)N(C)[C@@H](CC(C)C)C(=O)N[C@@H](C(C)C)C(=O)N(C)[C@@H](CC(C)C)C(=O)N[C@@H](C)C(=O)N[C@H](C)C(=O)N(C)[C@@H](CC(C)C)C(=O)N(C)[C@@H](CC(C)C)C(=O)N(C)[C@@H](C(C)C)C(=O)N1C` [VALSPODAR], which Activity [1] is on record?
**A.** Its Activity is “inhibitor [+]”.

**Q.** With `CCCN(CCC)S(=O)(=O)c1ccc(C(=O)O)cc1` [PROBENECID] as the compound, how does the Activity [2] read?
**A.** Its Activity is “is not an inhibitor [-]”.

**Q.** `COc1ccc2c3c([nH]c2c1)[C@H](C=C(C)C)N1C(=O)[C@@H]2CCCN2C(=O)[C@@H]1C3` [FUMITREMORGIN] was tested. Which Activity [3] did it give?
**A.** Its Activity is “is not an inhibitor [-]”.

**Q.** With `CC(=O)O[C@H]1C(=O)[C@@]2(C)C([C@H](OCc3ccccc3)C3(O)C[C@H](OC(C)=O)C(C)=C1C3(C)C)[C@]1(OC(C)=O)CO[C@@H]1C[C@@H]2OC(=O)/C=C/c1ccc(C(=O)c2ccccc2)cc1` (stereo not given in full) as the compound, how does the Activity [4] read?
**A.** Its Activity is “inhibitor [+]”.

**Q.** `CC(=O)O[C@H]1C(=O)[C@@]2(C)[C@H]([C@H](OC(=O)c3ccccc3)[C@]34OC(=O)O[C@H]3[C@H](OC(=O)[C@H](O)[C@H](CC(C)C)NC(=O)OC(C)(C)C)C(C)=C1C4(C)C)[C@]1(OC(C)=O)CO[C@@H]1C[C@@H]2O` [ORTATAXEL] was tested. Which Activity [5] did it give?
**A.** The Activity was “inhibitor [+]”.
